Reference: patent publication US8846653B2, “Delta-tocotrienol treatment and prevention of pancreatic cancer” (University of South Florida, priority 2006, dated 2014)

Key:
Assay type in all cases: cell-based, human
[1] = system: MiaPaCa-2 cells; assay: MTS assay of MiaPaCa2 cultures, single 50 μM dose; settings: MiaPaCa2, 50 μM
Experimental: MiaPaCa-2 cells were cultured in complete DMEM media containing 10% fetal bovine serum (FBS) and 1% penicillin-streptomycin, and 1% L-glutamine. BxPc-3 pancreatic cancer cells were cultured in complete RPMI media containing 10% fetal bovine serum (FBS), and 1% penicillin-streptomycin, 1% HEPES buffer, 1% sodium pyruvate and 1% L-glutamine HPDE6-C7 cells were cultured in serum-free keratinocyte SFM media. All cells were maintained at 37° C. in a humidified incubator with 5% CO2. The cells were treated with a single 50 μM dose of vehicle (vehicle only, may be a solvent), T3 alpha (alpha tocotrienol), T3 beta (beta tocotrienol), T3 gamma (gamma tocotrienol), T3 delta (delta tocotrienol), T alpha (alpha tocopherol), T beta (beta tocopherol), TS (tocopherol succinate), GG (geranylgeraniol), SA (succinic acid). A control (no treatment) culture was grown alongside the treatments for comparison. […]

[2] = system: BXPC3 cells; assay: MTT assay of BXPC3 cultures, single 50 μM dose; set-up: MTT assay result, run 1 / MTT assay result, run 2 / MTT assay result, run 3 / MTT assay result, run 4 / MTT assay result, run 5 / MTT assay result, run 6 / MTT assay result, run 7 / MTT assay result, av (average) / MTT assay result, av-blank / MTT assay result, av: unit not given here; settings: BXPC3, 50 μM; for MTT assay result, av-blank: average minus blank
Experimental: BXPC3 cells were cultured in complete […] media containing 10% fetal bovine serum (FBS) and 1% penicillin-streptomycin, and 1% L-glutamine. BxPc-3 pancreatic cancer cells were cultured in complete RPMI media containing 10% fetal bovine serum (FBS), and 1% penicillin-streptomycin, 1% HEPES buffer, 1% sodium pyruvate and 1% L-glutamine HPDE6-C7 cells were cultured in serum-free keratinocyte SFM media. All cells were maintained at 37° C. in a humidified incubator with 5% CO2. The cells were treated with a single 50 μM dose of vehicle (vehicle only, may be a solvent), T3 alpha (alpha tocotrienol), T3 beta (beta tocotrienol), T3 gamma (gamma tocotrienol), T3 delta (delta tocotrienol), T alpha (alpha tocopherol), T beta (beta tocopherol), TS (tocopherol succinate), GG (geranylgeraniol), SA (succinic acid). A control (no treatment) culture was grown alongside the treatments for comparison. Cell viability was measured using MTT assay at preselect times of 48 or 120 hours after treatment.

[3] = system: MiaPaCa-2 cells; assay: MTT assay of MiaPaCa2 cultures, single 50 μM dose; set-up: rel amt (relative value set to the control): unit not given here; settings: MiaPaCa2, 50 μM; for MTT assay result, av-blank: average minus blank; for MTT assay result, av: average of 7 runs
Experimental: MiaPaCa-2, BxPc-3, and HPDE6-C7 cells were cultured as described above, and treated with a single 50 μM dose of vehicle (ethanol extracted olive oil), T3 alpha (alpha tocotrienol), T3 beta (beta tocotrienol), T3 gamma (gamma tocotrienol), T3 delta (delta tocotrienol), T alpha (alpha tocopherol), T beta (beta tocopherol), TS (tocopherol succinate), GG (geranylgeraniol), SA (succinic acid). A control culture (vehicle only with no treatment) was grown alongside the treatments for comparison. Cell viability was measured using MTT assay at preselect times of 48 or 120 hours after treatment.

Cc1c(O)cc2c(c1C)O[C@](C)(CCC[C@H](C)CCC[C@H](C)CCCC(C)C)CC2 [T gamma]
rel amt (relative value set to the control) ([1]; 24 hours): 121
MTS assay result, run 1 ([1]; 24 hours): 0.273
MTS assay result, run 2 ([1]; 24 hours): 0.261
MTS assay result, run 3 ([1]; 24 hours): 0.268
MTS assay result, run 4 ([1]; 24 hours): 0.219
MTS assay result, run 5 ([1]; 24 hours): 0.264
MTS assay result, run 6 ([1]; 24 hours): 0.31
MTS assay result, run 7 ([1]; 24 hours): 0.295
MTS assay result, run 8 ([1]; 24 hours): 0.263
MTS assay result, run 9 ([1]; 24 hours): 0.269
rel amt (relative value set to the control) ([1]; 48 hours): 81
MTS assay result, run 1 ([1]; 48 hours): 0.329
MTS assay result, run 2 ([1]; 48 hours): 0.265
MTS assay result, run 3 ([1]; 48 hours): 0.304
MTS assay result, run 4 ([1]; 48 hours): 0.25
MTS assay result, run 5 ([1]; 48 hours): 0.289
MTS assay result, run 6 ([1]; 48 hours): 0.341
MTS assay result, run 7 ([1]; 48 hours): 0.301
MTS assay result, run 8 ([1]; 48 hours): 0.279
MTS assay result, run 9 ([1]; 48 hours): 0.295
rel amt (relative value set to the control) ([1]; 72 hours): 108
MTS assay result, run 1 ([1]; 72 hours): 0.5
MTS assay result, run 2 ([1]; 72 hours): 0.497
MTS assay result, run 3 ([1]; 72 hours): 0.46
MTS assay result, run 4 ([1]; 72 hours): 0.505
MTS assay result, run 5 ([1]; 72 hours): 0.515
MTS assay result, run 6 ([1]; 72 hours): 0.469
MTS assay result, run 7 ([1]; 72 hours): 0.429
MTS assay result, run 8 ([1]; 72 hours): 0.451
MTS assay result, run 9 ([1]; 72 hours): 0.478
rel amt (relative value set to the control) ([2]; 48 hours): 115
MTT assay result, av-blank ([2]; 48 hours): 0.262
MTT assay result, av (average) ([2]; 48 hours, average of 7 runs): 0.311
MTT assay result, run 1 ([2]; 48 hours): 0.32
MTT assay result, run 2 ([2]; 48 hours): 0.356
MTT assay result, run 3 ([2]; 48 hours): 0.335
MTT assay result, run 4 ([2]; 48 hours): 0.304
MTT assay result, run 5 ([2]; 48 hours): 0.277
MTT assay result, run 6 ([2]; 48 hours): 0.28
MTT assay result, run 7 ([2]; 48 hours): 0.306
rel amt (relative value set to the control) ([2]; 120 hours (5 days)): 103
MTT assay result, av-blank ([2]; 120 hours (5 days)): 0.595
MTT assay result, av ([2]; 120 hours (5 days), average of 7 runs): 0.650
MTT assay result, run 1 ([2]; 120 hours (5 days)): 0.628
MTT assay result, run 2 ([2]; 120 hours (5 days)): 0.66
MTT assay result, run 3 ([2]; 120 hours (5 days)): 0.653
MTT assay result, run 4 ([2]; 120 hours (5 days)): 0.649
MTT assay result, run 5 ([2]; 120 hours (5 days)): 0.682
MTT assay result, run 6 ([2]; 120 hours (5 days)): 0.615
MTT assay result, run 7 ([2]; 120 hours (5 days)): 0.661
rel amt (relative value set to the control) ([3]; 48 hours): 94
MTT assay result, av-blank ([3]; 48 hours): 0.292
MTT assay result, av ([3]; 48 hours): 0.338
MTT assay result, run 1 ([3]; 48 hours): 0.35
MTT assay result, run 2 ([3]; 48 hours): 0.323
MTT assay result, run 3 ([3]; 48 hours): 0.312
MTT assay result, run 4 ([3]; 48 hours): 0.36
MTT assay result, run 5 ([3]; 48 hours): 0.348
MTT assay result, run 6 ([3]; 48 hours): 0.328
MTT assay result, run 7 ([3]; 48 hours): 0.348
rel amt (relative value set to the control) ([3]; 120 hours (5 days)): 87
MTT assay result, av-blank ([3]; 120 hours (5 days)): 1.566
MTT assay result, av ([3]; 120 hours (5 days)): 1.618
MTT assay result, run 1 ([3]; 120 hours (5 days)): 1.52
MTT assay result, run 2 ([3]; 120 hours (5 days)): 1.516
MTT assay result, run 3 ([3]; 120 hours (5 days)): 1.547
MTT assay result, run 4 ([3]; 120 hours (5 days)): 1.625
MTT assay result, run 5 ([3]; 120 hours (5 days)): 1.917
MTT assay result, run 6 ([3]; 120 hours (5 days)): 1.568
MTT assay result, run 7 ([3]; 120 hours (5 days)): 1.635
